According to publication PMC12595434, “Development of retinoid nuclear receptor pathway antagonists through targeting aldehyde dehydrogenase 1A3” (iScience, 2025):

How the values were obtained:
[1] = target: T1, human ALDH1A1 (Homo sapiens, UniProt P00352); experiment: Recombinant enzyme activity assay; type: biochemical; settings: dose titration, up to 10 μM
T1 construct: made in house; host or cells: BL21-DE3 E. coli
T1 sequence (P00352 1-501): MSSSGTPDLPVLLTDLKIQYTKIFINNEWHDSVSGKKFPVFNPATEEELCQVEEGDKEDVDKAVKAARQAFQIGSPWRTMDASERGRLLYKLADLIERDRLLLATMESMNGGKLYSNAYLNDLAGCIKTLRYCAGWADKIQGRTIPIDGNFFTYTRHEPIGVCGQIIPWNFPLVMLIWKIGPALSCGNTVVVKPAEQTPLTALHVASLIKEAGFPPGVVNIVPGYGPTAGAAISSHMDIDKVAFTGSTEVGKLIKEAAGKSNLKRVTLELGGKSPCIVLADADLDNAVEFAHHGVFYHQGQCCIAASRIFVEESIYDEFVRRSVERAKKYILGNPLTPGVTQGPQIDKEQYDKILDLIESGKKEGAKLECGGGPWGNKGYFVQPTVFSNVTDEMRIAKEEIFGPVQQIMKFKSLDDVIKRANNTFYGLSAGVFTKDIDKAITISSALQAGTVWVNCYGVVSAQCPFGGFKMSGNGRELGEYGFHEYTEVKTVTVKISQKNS

[2] = target: T2, human ALDH1A3 in A375 cells (Homo sapiens, UniProt P47895); experiment: Aldefluor assay in A375 cells; type: cell-based; settings: up to 10 μM
T2 construct: the cell lines with high endogenous ALDH1A3 activity: MDA-MB-468 (triple-negative breast cancer), A375 (melanoma), and LN229 (glioblastoma); endogenous in cells; host or cells: A375
T2 sequence (P47895 1-512): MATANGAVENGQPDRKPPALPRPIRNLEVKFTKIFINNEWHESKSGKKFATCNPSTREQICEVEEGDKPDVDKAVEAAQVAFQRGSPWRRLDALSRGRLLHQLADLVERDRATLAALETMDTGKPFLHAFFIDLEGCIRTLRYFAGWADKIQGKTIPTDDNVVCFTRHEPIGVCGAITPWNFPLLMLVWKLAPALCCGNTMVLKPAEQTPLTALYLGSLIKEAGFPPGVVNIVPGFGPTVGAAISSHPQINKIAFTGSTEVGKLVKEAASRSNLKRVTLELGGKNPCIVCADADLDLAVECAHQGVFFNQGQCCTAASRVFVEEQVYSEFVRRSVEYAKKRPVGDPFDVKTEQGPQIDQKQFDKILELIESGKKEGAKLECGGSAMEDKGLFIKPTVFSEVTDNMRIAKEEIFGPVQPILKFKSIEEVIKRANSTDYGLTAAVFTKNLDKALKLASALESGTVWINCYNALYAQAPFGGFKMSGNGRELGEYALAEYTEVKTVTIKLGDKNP

[3] = target: T3, ALDH1A1 in HepG2 cells (Homo sapiens, UniProt P00352); experiment: Aldefluor assay in HepG2 cells; type: cell-based; settings: 45 min incubation at 37°C
T3 construct: endogenous in cells; host or cells: HepG2
Description: In addition, cells were suspended at a concentration of 100,000 cells per mL. Finally, DMSO was added to at 1% final in all cells to improve kinetics of the assay. For compound titrations, concentrated compound stock was added first to tubes and a uniform Aldefluor buffer containing the cell suspension was added to dilute to final volumes. Cells were analyzed by a BD LSRII for flow cytometry and were sorted using a FACSAria Fusion cell sorter (BD Biosciences) equipped with a 70 micron nozzle. Sample and sort collection tubes were kept at 4°C. […] DAPI was used as a live-dead indicator.

[4] = target: T4, ALDH1A3 (Homo sapiens, UniProt P47895); experiment: Recombinant enzyme activity assay; type: biochemical; parameters: made in house; host or cells: BL21-DE3 E. coli; settings: dose titration, up to 10 μM
T4 sequence (P47895 1-512): T2 sequence (P47895 1-512)

[5] = target: T5, human ALDH1A2 (Homo sapiens, UniProt O94788); experiment: Recombinant enzyme activity assay; type: biochemical; settings: dose titration, up to 10 μM
T5 construct: made in house; host or cells: BL21-DE3 E. coli
T5 sequence (O94788 1-518): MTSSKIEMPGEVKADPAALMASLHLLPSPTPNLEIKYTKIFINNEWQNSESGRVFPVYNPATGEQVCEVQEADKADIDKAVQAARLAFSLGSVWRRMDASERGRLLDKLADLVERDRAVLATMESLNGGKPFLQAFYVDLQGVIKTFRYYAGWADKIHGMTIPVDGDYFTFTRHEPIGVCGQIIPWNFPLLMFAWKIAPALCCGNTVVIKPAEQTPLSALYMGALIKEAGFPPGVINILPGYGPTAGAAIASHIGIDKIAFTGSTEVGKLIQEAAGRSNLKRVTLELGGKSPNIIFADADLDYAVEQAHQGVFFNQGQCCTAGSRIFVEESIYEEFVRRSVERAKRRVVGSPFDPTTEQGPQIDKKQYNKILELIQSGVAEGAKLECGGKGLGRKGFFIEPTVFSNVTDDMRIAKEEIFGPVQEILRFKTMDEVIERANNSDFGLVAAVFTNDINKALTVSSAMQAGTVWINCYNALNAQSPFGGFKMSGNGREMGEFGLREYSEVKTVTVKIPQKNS
Description: Human and mouse ALDH enzymes were cloned from respective reference RNA, constructed into plasmids using restriction enzyme cloning and confirmed by Sanger Sequencing. Genes were cloned into a vector containing the T7 promoter for bacterial expression and into a lentiviral expression vector for cell line expression as previously described.[78] Recombinant protein was isolated by inducing BL21-DE3 E. coli (Thermo Fisher) containing the respective plasmid for 20 h at room temperature, shaking, with 300 μM IPTG (Selleck Chem). Cell disruption was achieved via ultrasonication (Φ10, 3s on/6s off, 25min) in 1L of amplified bacterial culture. The target protein was then purified using Ni NTA beads 6FF affinity chromatography. Lysis buffer consisted of 50 mM Na2HPO4, 300 mM NaCl, 1 mM β-ME, pH7.5. The column (2 mL) was washed with 50 mM Na2HPO4, 300 mM NaCl, 1 mM β-ME, 20 mM Imidazole, pH7.5. Elution was performed using 3 mL of 50 mM Na2HPO4, 300 mM NaCl, 1 mM β-ME, 250 mM Imidazole, pH7.5. Following affinity chromatography, the protein underwent further purification via Gel filtration chromatography using a Superdex200 column. Aliquots were quality controlled against a pure internal standard enzyme and/or by western blot to confirm enzyme expression. Purified enzyme was used for biochemical and biophysical assays.
For the recombinant enzyme activity assay, enzyme aliquots were thawed on ice for 4 h prior to analysis and the protocol was performed as described[8] with the following key changes: 1) Final concentrations of NAD+ (Gold Bio) were 200 μM and BSA were 1 mg/mL 2) Propanaldehyde was used as the substrate for ALDH1A1 and ALDH2. 3) Reaction velocity was monitored through diaphorase (clostridium) coupled reduction of resazurin (100 μM) monitored with ex/em of 560nm/590 nm in order to regenerate NAD+ and thus maintain constant cofactor concentration as well as to avoid high absorbance values of many screening compounds at the NADH absorbance. Assays were conducted at room temperature (controlled to 21-23C) and all buffers were maintained at pH 7.5. For all reactions, pre-incubation time was approximately 2 min while the reaction monitoring was performed over 10 min.

[6] = tested on: ALDH1A3; settings: read-out: reported IC50 for ALDH1A3; cited from earlier work
[7] = tested on: ALDH1A3 cells; settings: cited from earlier work
[8] = tested on: MDA-MB-468 cells; settings: MDA-MB-468, 24 hour incubation, highest tested dose 10 μM
[9] = tested on: HaCaT cells; experiment: Dose-titration cytotoxicity analysis; settings: 24 hour incubation, highest tested dose 10 μM
[10] = tested on: GABAA

| activity in Aldefluor assay, A375 cells (in words) [2] | inhibition at 10 µM [3] [%] | Compound | inhibitory activity against ALDH1A1 (in words) [1] | inhibitory activity against ALDH1A3 (in words) [4] | inhibitory activity against ALDH1A2 (in words) [5] | IC50 [6] [nM] | reported cytotoxic activity against ALDH1A3 cells (in words) [7] | nonspecific cytotoxicity (in words) [8] | nonspecific cytotoxicity (in words) [9] | inhibition [10] [%] |
| --- | --- | --- | --- | --- | --- | --- | --- | --- | --- | --- |
| no dose-dependent inhibition of activity | 13 | CSC(=O)C#CC(C)(C)N(C)C [DIMATE, S-methyl 4-(dimethylamino)-4-methyl-pent-2-ynethioate] | did not show any activity | did not show any activity | did not show any activity |  |  |  |  |  |
|  |  | c1ccc(-c2ccc3nc(-c4ccccc4)cn3c2)cc1 [GA11] | no activity up to 10 μM | no ALDH1A3 inhibitory activity up to 10 μM | no activity up to 10 μM | 660 | picomolar | potent cytotoxicity above 100 nM | potent cytotoxicity above 100 nM |  |
|  |  | CCOC(=O)c1ncn2c1CN(C)C(=O)c1cc(F)ccc1-2 [flumazenil] |  |  |  |  |  |  |  | 95.9 |
